Measured values from ChEMBL document CHEMBL3352804, “One-pot synthesis of polyunsaturated fatty acid amides with anti-proliferative properties” (Bioorg Med Chem Lett, 2014).
pIC50: −log10 of the molar value.

Assays:
A549 [1] = test: Growth inhibition of human A549 cells at 3 uM after 48 hrs by trypan blue dye exclusion method; type: functional; details: A549, 48 h, read-out: GI
A549 [2] = test: Growth inhibition of human A549 cells after 48 hrs by trypan blue dye exclusion method; type: functional, cell-based; details: A549, 48 h

Row | pIC50 (A549 [2]) | SMILES | inhibition of growth at 3 µM (A549 [1]) [%]
1 |  | CC/C=C\C/C=C\C/C=C\C/C=C\C/C=C\CCCC(=O)OCC(O)CO (stereo unspecified) | 51.4
2 |  | CC/C=C\C/C=C\C/C=C\C/C=C\C/C=C\C/C=C\CCC(=O)NC[C@H](O)CO | 42.3
3 |  | CC/C=C\C/C=C\C/C=C\C/C=C\C/C=C\C/C=C\CCC(=O)NCCO | 29.3
4 |  | CC/C=C\C/C=C\C/C=C\C/C=C\C/C=C\CCCC(=O)OCCCN(C)C | 95
5 |  | CC/C=C\C/C=C\C/C=C\C/C=C\C/C=C\CCCCCC(=O)NC[C@@H](O)CO | 47.4
6 |  | CC/C=C\C/C=C\C/C=C\C/C=C\C/C=C\C/C=C\CCC(=O)NCC(O)CNC(=O)CC/C=C\C/C=C\C/C=C\C/C=C\C/C=C\C/C=C\CC | 83.8
7 |  | CC/C=C\C/C=C\C/C=C\C/C=C\C/C=C\C/C=C\CCC(=O)NCC(O)CN (stereo unspecified) | 38.3
8 |  | CC/C=C\C/C=C\C/C=C\C/C=C\C/C=C\CCCCCC(=O)OCC(O)CO (stereo unspecified) | 74.5
9 | 6.60 | CC/C=C\C/C=C\C/C=C\C/C=C\C/C=C\C/C=C\CCC(=O)N[C@H](C)CO | 98.3
10 |  | CC/C=C\C/C=C\C/C=C\C/C=C\C/C=C\CCCCCC(=O)NC(CO)CO | 97.4
11 |  | CC/C=C\C/C=C\C/C=C\C/C=C\C/C=C\C/C=C\CCC(=O)NCCNC(=O)CC/C=C\C/C=C\C/C=C\C/C=C\C/C=C\C/C=C\CC | 13
12 | 5.82 | CC/C=C\C/C=C\C/C=C\C/C=C\C/C=C\C/C=C\CCC(=O)OCC(O)CO (stereo unspecified) | 59.1
13 |  | CC/C=C\C/C=C\C/C=C\C/C=C\C/C=C\CCCC(=O)NC(CO)CO | 84.2
14 |  | CC/C=C\C/C=C\C/C=C\C/C=C\C/C=C\CCCCCC(=O)NC[C@H](O)CO | 31.6
15 |  | CC/C=C\C/C=C\C/C=C\C/C=C\C/C=C\CCCC(=O)NCCO | 70.9
16 |  | CC/C=C\C/C=C\C/C=C\C/C=C\C/C=C\C/C=C\CCC(=O)NC[C@@H](O)CO | 48.1
17 | 6.32 | CC/C=C\C/C=C\C/C=C\C/C=C\C/C=C\C/C=C\CCC(=O)NC(CO)CO | 77.4
18 |  | CC/C=C\C/C=C\C/C=C\C/C=C\C/C=C\CCCCCC(=O)NCC(O)CNC(=O)CCCCC/C=C\C/C=C\C/C=C\C/C=C\C/C=C\CC | 97.7
19 |  | CC/C=C\C/C=C\C/C=C\C/C=C\C/C=C\C/C=C\CCC(=O)NCC(O)CO (stereo unspecified) | 88.7
20 |  | CC/C=C\C/C=C\C/C=C\C/C=C\C/C=C\CCCCCC(=O)NCCO | 96.9
21 |  | CC/C=C\C/C=C\C/C=C\C/C=C\C/C=C\C/C=C\CCC(=O)NC(CO)C(=O)O (stereo unspecified) | 68.7
22 |  | CC/C=C\C/C=C\C/C=C\C/C=C\C/C=C\CCCC(=O)NCCCNC | 67.8
23 |  | CC/C=C\C/C=C\C/C=C\C/C=C\C/C=C\CCCC(=O)NC(C)CO (stereo unspecified) | 98.4
